Test results from ChEMBL document CHEMBL2010646, “Small molecule inhibitors of the HPV16-E6 interaction with caspase 8” (Bioorg Med Chem Lett, 2012).
pIC50: −log10 of the molar value. Activity calls are given as the source filed them. The calls are words filed in the database; no cut-off is given here.

Key:
[1] = target: Protein E6 (Human papillomavirus 16) (UniProt P03126); assay: Inhibition of GST-tagged Human papillomavirus 16 protein E6 interaction with His-tagged human caspase 8 expressed in Escherichia coli at 20 nM to 20 uM after 1 hr incubation followed by overnight incubation by Alpha screening technique
Caspase-8 (Homo sapiens) = Caspase-8 (Homo sapiens) (UniProt Q14790); assay: Inhibition of GST-tagged human caspase 8 interaction with His-tagged human caspase 8 expressed in Escherichia coli at 0.1 to 10 uM after 1 hr followed by overnight incubation by bead-based binding assay
Protein E6 = Protein E6 (Human papillomavirus 16, UniProt P03126); assay: (§1) Inhibition of GST-tagged Human papillomavirus 16 protein E6 interaction with His-tagged human caspase 8 expressed in Escherichia coli after 1 hr incubation followed by overnight incubation by Alpha screening technique
[2] = target: Protein E6 (Human papillomavirus 16) (UniProt P03126); assay: as §1
[3] = target: Protein E6 (Human papillomavirus 16) (UniProt P03126); assay: Inhibition of GST-tagged Human papillomavirus 16 protein E6 interaction with His-tagged human FADD expressed in Escherichia coli after 1 hr incubation followed by overnight incubation by Alpha screening technique

Chain of Caspase-8 (Homo sapiens) (Q14790 217-374 limits assumed): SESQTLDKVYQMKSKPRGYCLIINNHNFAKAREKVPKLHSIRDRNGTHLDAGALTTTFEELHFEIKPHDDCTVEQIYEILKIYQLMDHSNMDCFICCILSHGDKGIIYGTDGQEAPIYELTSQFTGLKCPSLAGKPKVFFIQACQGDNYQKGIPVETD
Chain of Caspase-8 (Homo sapiens) (Q14790 385-479 limits assumed): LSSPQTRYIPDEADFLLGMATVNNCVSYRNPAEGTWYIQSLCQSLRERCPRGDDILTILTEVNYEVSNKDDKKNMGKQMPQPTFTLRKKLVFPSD
Chain of Protein E6 (P03126 whole entry): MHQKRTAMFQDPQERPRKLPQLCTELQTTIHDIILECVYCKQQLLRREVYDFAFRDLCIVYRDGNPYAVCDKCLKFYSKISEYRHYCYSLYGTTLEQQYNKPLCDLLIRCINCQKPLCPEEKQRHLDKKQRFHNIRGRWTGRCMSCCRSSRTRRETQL
Chain of Protein E6 (Human papillomavirus 16) (P03126 whole entry): as above

Compound | inhibition [1] | also measured
COc1cc(O)c2c(=O)c(O)c(-c3ccc(O)c(O)c3)oc2c1 | inactive | 
COc1cc(-c2oc3cc(O)cc(O)c3c(=O)c2O)ccc1O | inactive | 
O=c1cc(-c2ccccc2)oc2ccccc12 | inactive | 
O=c1c(O)c(-c2ccccc2)oc2ccccc12 | inactive | 
CC(C)c1ccc(-c2oc3c(Cl)cc(CC(=O)O)cc3c(=O)c2O)cc1 | inactive | 
O=c1c(O)c(-c2ccccc2)oc2ccc(O)cc12 | inactive | inhibition (Caspase-8 (Homo sapiens)): inactive
COc1ccc2c(=O)c(O)c(-c3ccccc3)oc2c1 | inactive | 
O=c1c(O)c(-c2ccc(O)cc2O)oc2cc(O)cc(O)c12 [MORIN] |  | pIC50 (Protein E6): 5.40; inhibition (Caspase-8 (Homo sapiens)): inactive
O=c1c(O)c(-c2ccc(O)c(O)c2)oc2cc(O)cc(O)c12 [QUERCETIN] |  | pIC50 (Protein E6): < 4.70
O=C(O)Cc1cc(Cl)c2oc(-c3ccc(Cl)cc3)c(O)c(=O)c2c1 | inactive | 
O=c1c(O)c(-c2ccccc2)oc2cc(O)cc(O)c12 | Active | 
O=c1c(O)c(-c2ccccc2)oc2cc(O)ccc12 | inactive | 
O=C(O)Cc1cc(Cl)c2oc(-c3ccccc3)c(O)c(=O)c2c1 | inactive | 
O=c1c(O)c(-c2ccc(O)cc2)oc2cc(O)cc(O)c12 [KAEMPFEROL] |  | inhibition [2]: Dose-dependent effect; pIC50 (Protein E6): < 4.70; inhibition [3]: Dose-dependent effect
O=c1c(O)c(-c2ccccc2O)oc2cc(O)cc(O)c12 | inactive | 
COc1cc(-c2oc3cc(O)ccc3c(=O)c2O)ccc1O | inactive | 
O=c1cc(-c2ccc(O)cc2)oc2cc(O)cc(O)c12 | inactive | 
O=c1c(O)c(-c2cc(O)c(O)c(O)c2)oc2cc(O)cc(O)c12 [MYRICETIN] |  | pIC50 (Protein E6): 6.07; inhibition (Caspase-8 (Homo sapiens)): inactive
O=c1c(O)c(-c2ccc(O)c(O)c2)oc2cc(O)ccc12 | inactive | 
